Measurements from PubChem BioAssay AID1963865 (Molecular Pharmacology Branch, DTP, NCI, 2024).
pIC50: −log10 of the molar value.

Tested on: KRAS PDC multicell spheroid viability
Experiment: Anticancer human tumor 825966-067-R-J1-PDC patient-derived colon carcinoma cell line growth inhibition [KRAS2]
Conditions: for pIC50: curve of first compound; for viability, T/C: stronger effect = lower value; active = viability on the fitted dose curve at most 10% of control; inactive = the rest
In short: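 KRAS-mutant tumor cells were grown as spheroids with HUVEC endothelial cells and human MSCs as stroma. Targeted agents were tested alone and with KRAS pathway inhibitors. Doses started at or near clinical Cmax, or 10 microM, descending half-log.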

[1] = second compound 0.1 µM, first compound 0.01 µM
[2] = second compound 0.1 µM, first compound 0.0316 µM
[3] = second compound 0.1 µM, first compound 0.1 µM
[4] = second compound 0.1 µM, first compound 0.316 µM
[5] = second compound 0.1 µM, first compound 1 µM
[6] = second compound 0.1 µM, first compound 3.16 µM
[7] = second compound 0.316 µM, first compound 0.01 µM
[8] = second compound 0.316 µM, first compound 0.0316 µM
[9] = second compound 0.316 µM, first compound 0.1 µM
[10] = second compound 0.316 µM, first compound 0.316 µM
[11] = second compound 0.316 µM, first compound 1 µM
[12] = second compound 0.316 µM, first compound 3.16 µM
[13] = second compound 1 µM, first compound 0.01 µM
[14] = second compound 1 µM, first compound 0.0316 µM
[15] = second compound 1 µM, first compound 0.1 µM
[16] = second compound 1 µM, first compound 0.316 µM
[17] = second compound 1 µM, first compound 1 µM
[18] = second compound 1 µM, first compound 3.16 µM
[19] = second compound 3.16 µM, first compound 0.01 µM
[20] = second compound 3.16 µM, first compound 0.0316 µM
[21] = second compound 3.16 µM, first compound 0.1 µM
[22] = second compound 3.16 µM, first compound 0.316 µM
[23] = second compound 3.16 µM, first compound 1 µM
[24] = second compound 3.16 µM, first compound 3.16 µM
[25] = second compound 10 µM, first compound 0.01 µM
[26] = second compound 10 µM, first compound 0.0316 µM
[27] = second compound 10 µM, first compound 0.1 µM
[28] = second compound 10 µM, first compound 0.316 µM
[29] = second compound 10 µM, first compound 1 µM
[30] = second compound 10 µM, first compound 3.16 µM
[31] = second compound 0.1 µM, first compound 10 µM
[32] = second compound 0.316 µM, first compound 10 µM
[33] = second compound 1 µM, first compound 10 µM
[34] = second compound 3.16 µM, first compound 10 µM
[35] = second compound 10 µM, first compound 10 µM
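Also: spheroids exposed to compounds for 7 days.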
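For viability, T/C in this document: 100% = DMSO vehicle control viability.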

CC1COCCN1c1cc(-c2ccnn2C)c2ccnc(-c3ccn[nH]3)c2n1 (stereo not given) + CNCc1ccccc1-c1csc(C(C)Nc2nc(C)nc3cc(OC)c(OC)cc23)c1
6.61: pIC50 (second compound 0.1 µM)
inactive: viability, T/C [1] 111% | viability, T/C [2] 129% | viability, T/C [3] 89.2% | viability, T/C [4] 34.4% | viability, T/C [5] 44.4% | viability, T/C [6] 37.3% | viability, T/C [7] 132% | viability, T/C [8] 131% | viability, T/C [9] 75.8% | viability, T/C [10] 54% | viability, T/C [11] 49.5% | viability, T/C [12] 30.3% | viability, T/C [13] 104% | viability, T/C [14] 91.5% | viability, T/C [15] 56.8% | viability, T/C [16] 18.3% | viability, T/C [19] 29.4%
> 8.00: pIC50 (second compound 3.16 µM) | pIC50 (second compound 10 µM)
active: viability, T/C [17] 14.2% | viability, T/C [18] 2.54% | viability, T/C [20] 8.68% | viability, T/C [21] 1.56% | viability, T/C [22] 2.53% | viability, T/C [23] 0.56% | viability, T/C [24] 0.39% | viability, T/C [25] 0.18% | viability, T/C [26] 0.15% | viability, T/C [27] 0.12% | viability, T/C [28] 0.52% | viability, T/C [29] 0.12% | viability, T/C [30] 0.19%
6.91: pIC50 (second compound 1 µM)
6.56: pIC50 (second compound 0.316 µM)

CC1OCC2(CCN(c3cnc(Sc4ccnc(N)c4Cl)c(N)n3)CC2)C1N (stereo not given) + CNCc1ccccc1-c1csc(C(C)Nc2nc(C)nc3cc(OC)c(OC)cc23)c1
5.12: pIC50 (second compound 0.1 µM)
5.16: pIC50 (second compound 0.316 µM)
inactive: viability, T/C [2] 109% | viability, T/C [3] 107% | viability, T/C [4] 101% | viability, T/C [5] 94.3% | viability, T/C [6] 101% | viability, T/C [31] 34.4% | viability, T/C [8] 84.8% | viability, T/C [9] 107% | viability, T/C [10] 107% | viability, T/C [11] 88% | viability, T/C [12] 105% | viability, T/C [32] 26.8% | viability, T/C [14] 113% | viability, T/C [15] 99.9% | viability, T/C [16] 94.4% | viability, T/C [17] 96.4% | viability, T/C [18] 109% | viability, T/C [33] 22.1% | viability, T/C [20] 96.4% | viability, T/C [21] 36.9% | viability, T/C [22] 92.7% | viability, T/C [23] 30% | viability, T/C [24] 49.9%
5.94: pIC50 (second compound 3.16 µM)
active: viability, T/C [34] 0.35% | viability, T/C [26] 0.28% | viability, T/C [27] 0.27% | viability, T/C [28] 0.35% | viability, T/C [29] 0.24% | viability, T/C [30] 0.22% | viability, T/C [35] 0.25%
> 7.50: pIC50 (second compound 10 µM)
5.17: pIC50 (second compound 1 µM)

CCNC(=O)CC1N=C(c2ccc(Cl)cc2)c2cc(OC)ccc2-n2c(C)nnc21 (stereo not given) + CNCc1ccccc1-c1csc(C(C)Nc2nc(C)nc3cc(OC)c(OC)cc23)c1
< 5.00: pIC50 (second compound 0.1 µM) | pIC50 (second compound 0.316 µM) | pIC50 (second compound 1 µM)
active: viability, T/C [21] 0.64% | viability, T/C [22] 0.53% | viability, T/C [23] 0.19% | viability, T/C [24] 2.33% | viability, T/C [34] 0.59% | viability, T/C [26] 0.15% | viability, T/C [27] 0.15% | viability, T/C [28] 0.17% | viability, T/C [29] 0.16% | viability, T/C [30] 0.14% | viability, T/C [35] 0.37%
> 7.50: pIC50 (second compound 3.16 µM) | pIC50 (second compound 10 µM)
inactive: viability, T/C [2] 90.3% | viability, T/C [3] 113% | viability, T/C [4] 118% | viability, T/C [5] 91.4% | viability, T/C [6] 82.2% | viability, T/C [31] 65% | viability, T/C [8] 112% | viability, T/C [9] 113% | viability, T/C [10] 120% | viability, T/C [11] 90.9% | viability, T/C [12] 83.1% | viability, T/C [32] 71.5% | viability, T/C [14] 117% | viability, T/C [15] 113% | viability, T/C [16] 122% | viability, T/C [17] 111% | viability, T/C [18] 96.6% | viability, T/C [33] 51.1% | viability, T/C [20] 27.8%

Cn1nccc1Nc1nccc(-c2cc3c(s2)C(C)(C)N(CCN2CCOCC2)C3=O)n1 + CNCc1ccccc1-c1csc(C(C)Nc2nc(C)nc3cc(OC)c(OC)cc23)c1
> 7.50: pIC50 (second compound 10 µM)
active: viability, T/C [22] 12.4% | viability, T/C [23] 0.56% | viability, T/C [24] 0.23% | viability, T/C [34] 0.47% | viability, T/C [26] 0.39% | viability, T/C [27] 0.21% | viability, T/C [28] 0.16% | viability, T/C [29] 0.16% | viability, T/C [30] 2.28% | viability, T/C [35] 0.24%
inactive: viability, T/C [2] 108% | viability, T/C [3] 96.9% | viability, T/C [4] 123% | viability, T/C [5] 125% | viability, T/C [6] 96.1% | viability, T/C [31] 82.3% | viability, T/C [8] 94.8% | viability, T/C [9] 103% | viability, T/C [10] 137% | viability, T/C [11] 75.6% | viability, T/C [12] 82.2% | viability, T/C [32] 75.8% | viability, T/C [14] 118% | viability, T/C [15] 137% | viability, T/C [16] 134% | viability, T/C [17] 98.1% | viability, T/C [18] 66.8% | viability, T/C [33] 29% | viability, T/C [20] 78% | viability, T/C [21] 13.4%
5.30: pIC50 (second compound 1 µM)
7.27: pIC50 (second compound 3.16 µM)
< 5.00: pIC50 (second compound 0.1 µM) | pIC50 (second compound 0.316 µM)

CC(=O)OC12COC1CC(O)C1(C)C(=O)C(O)C3=C(C)C(OC(=O)C(O)C(NC(=O)OC(C)(C)C)c4ccccc4)CC(O)(C(OC(=O)c4ccccc4)C21)C3(C)C (stereo not given) + COc1cc2nc(C)nc(NC(C)c3cc(N)cc(C(F)(F)F)c3)c2cc1OC1CCOC1
inactive: viability, T/C [1] 18.9% | viability, T/C [2] 24.6% | viability, T/C [3] 35.8% | viability, T/C [4] 17.3% | viability, T/C [5] 26.8% | viability, T/C [6] 34.5% | viability, T/C [7] 23.8% | viability, T/C [8] 29.3% | viability, T/C [9] 23.1% | viability, T/C [10] 38.4% | viability, T/C [11] 24% | viability, T/C [12] 44% | viability, T/C [13] 16.9% | viability, T/C [14] 29.3% | viability, T/C [15] 27.6% | viability, T/C [16] 18.7% | viability, T/C [17] 24.7% | viability, T/C [18] 29.6% | viability, T/C [19] 16.6% | viability, T/C [20] 13.4% | viability, T/C [21] 29.2% | viability, T/C [22] 16.4% | viability, T/C [23] 21.3% | viability, T/C [24] 25.1% | viability, T/C [25] 11.7% | viability, T/C [26] 15% | viability, T/C [27] 19.3% | viability, T/C [28] 14.2% | viability, T/C [29] 20.9% | viability, T/C [30] 12.4%
> 8.00: pIC50 (second compound 0.1 µM) | pIC50 (second compound 0.316 µM) | pIC50 (second compound 1 µM) | pIC50 (second compound 3.16 µM) | pIC50 (second compound 10 µM)

CN(C)C/C=C/C(=O)Nc1cc2c(Nc3ccc(F)c(Cl)c3)ncnc2cc1O[C@H]1CCOC1 + COc1cc2nc(C)nc(NC(C)c3cc(N)cc(C(F)(F)F)c3)c2cc1OC1CCOC1
inactive: viability, T/C (second compound 0.1 µM, first compound 0.000316 µM) 94% | viability, T/C (second compound 0.1 µM, first compound 0.001 µM) 96.7% | viability, T/C (second compound 0.1 µM, first compound 0.00316 µM) 82.9% | viability, T/C [1] 101% | viability, T/C [2] 96.1% | viability, T/C [3] 91.8% | viability, T/C (second compound 0.316 µM, first compound 0.000316 µM) 103% | viability, T/C (second compound 0.316 µM, first compound 0.001 µM) 107% | viability, T/C (second compound 0.316 µM, first compound 0.00316 µM) 95.9% | viability, T/C [7] 98.9% | viability, T/C [8] 105% | viability, T/C [9] 103% | viability, T/C (second compound 1 µM, first compound 0.000316 µM) 92.2% | viability, T/C (second compound 1 µM, first compound 0.001 µM) 96% | viability, T/C (second compound 1 µM, first compound 0.00316 µM) 105% | viability, T/C [13] 97.2% | viability, T/C [14] 99.2% | viability, T/C [15] 83.5% | viability, T/C (second compound 3.16 µM, first compound 0.000316 µM) 133% | viability, T/C (second compound 3.16 µM, first compound 0.001 µM) 119% | viability, T/C (second compound 3.16 µM, first compound 0.00316 µM) 107% | viability, T/C [19] 115% | viability, T/C [20] 106% | viability, T/C [21] 105% | viability, T/C (second compound 10 µM, first compound 0.000316 µM) 108% | viability, T/C (second compound 10 µM, first compound 0.001 µM) 103% | viability, T/C (second compound 10 µM, first compound 0.00316 µM) 116% | viability, T/C [25] 106% | viability, T/C [26] 105% | viability, T/C [27] 95.2%
< 7.00: pIC50 (second compound 0.1 µM) | pIC50 (second compound 0.316 µM) | pIC50 (second compound 1 µM) | pIC50 (second compound 3.16 µM) | pIC50 (second compound 10 µM)
